Measurements from patent publication US20230190852A1, “COMPOSITIONS AND METHODS FOR JOINT HEALTH” (Unigen, Inc., priority 2013, published 2023).

How the values were obtained:
BKB1 receptor = target: T1, BKB1 receptor (Homo sapiens, UniProt P46663); test: Bradykinin B1 (BKB1) radioligand binding assay
T1 construct: Membranes from human IMR-90 lung fibroblasts, stimulated with IL-1β; endogenous in cells; host or cells: human IMR-90 lung fibroblasts, IL-1β stimulated (membranes)
T1 sequence (P46663 1-353): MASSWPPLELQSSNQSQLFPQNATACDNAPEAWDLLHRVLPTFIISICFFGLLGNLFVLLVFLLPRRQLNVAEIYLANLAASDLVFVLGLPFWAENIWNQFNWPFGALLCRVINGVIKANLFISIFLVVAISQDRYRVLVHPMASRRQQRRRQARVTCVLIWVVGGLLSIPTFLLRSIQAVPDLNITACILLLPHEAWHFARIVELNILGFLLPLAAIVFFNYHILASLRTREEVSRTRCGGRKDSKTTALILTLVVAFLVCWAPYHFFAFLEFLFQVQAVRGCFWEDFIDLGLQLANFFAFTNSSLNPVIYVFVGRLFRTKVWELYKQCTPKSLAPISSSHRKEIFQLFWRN
Procedure: Membranes from human IMR-90 lung fibroblasts, stimulated with IL-1β in modified HEPES buffer (PH=7.4), were incubated with a test sample in the presence of 0.9 nM [^3H](Des-[…])-Kallidin for 60 minutes at room temperature. After incubation, membranes were filtered and washed five times with modified DPBS buffer (pH=7.4). Samples were scintillation counted to determine the amount of specifically bound to the BKB1 receptor containing membrane. […] BKB1 binding assay, as described in Example 17, was used to test curcumin compound isolated from a Curcuma longa extract (Compound 11), as well as commercially available curcumin purchased from Sigma-Aldrich (C1386). Curcumin was tested at final concentrations ranging from 200 μM to 5 nM. Binding curves were plotted by non-linear regression fit (using GraphPad Prizm software). Ki values were computed using Cheng-Prusoff algorithm. In addition, inhibition of BKB2 receptor binding activity by curcumin was examined with methods similar to those described in Example 17 for the BKB1 receptor with some modifications. […] Composition of Assay Buffer: 24 mM TES, pH 6.8, 1 mM 1.10-Phenanthrioline, 0.3% BSA. • 2. Source of BKb2R: CHO-K1 cells expressing recombinant human BKb2R • 3. Ligand: [^3H]-Bradykinin 0.2 nM. • 4. Incubation time: 90 min RT. • 5. Reading: TopCount.

recombinant human BKb2R = target: T2, recombinant human BKb2R (Homo sapiens, UniProt P30411); test: Bradykinin Radioligand Binding Assay (BKB2); conditions: manually calculated by Cheng-Prusoff equation; read-out: BKB2 Ki (μg/ml) (converted)
T2 construct: expressed in transfected cells; host or cells: CHO-K1
T2 sequence (P30411 1-391): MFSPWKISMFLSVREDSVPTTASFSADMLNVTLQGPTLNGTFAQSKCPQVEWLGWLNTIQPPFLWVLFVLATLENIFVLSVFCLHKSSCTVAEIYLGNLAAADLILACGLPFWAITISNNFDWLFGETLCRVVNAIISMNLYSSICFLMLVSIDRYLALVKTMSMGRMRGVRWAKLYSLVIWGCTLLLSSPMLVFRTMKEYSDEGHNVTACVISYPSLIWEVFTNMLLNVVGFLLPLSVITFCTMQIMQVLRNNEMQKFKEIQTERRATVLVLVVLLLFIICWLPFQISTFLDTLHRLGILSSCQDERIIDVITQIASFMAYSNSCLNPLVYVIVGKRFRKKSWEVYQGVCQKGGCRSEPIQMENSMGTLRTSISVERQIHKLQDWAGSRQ
Procedure: BKB1 binding assay, as described in Example 17, was used to test curcumin compound isolated from a Curcuma longa extract (Compound 11), as well as commercially available curcumin purchased from Sigma-Aldrich (C1386). Curcumin was tested at final concentrations ranging from 200 μM to 5 nM. Binding curves were plotted by non-linear regression fit (using GraphPad Prizm software). Ki values were computed using Cheng-Prusoff algorithm. In addition, inhibition of BKB2 receptor binding activity by curcumin was examined with methods similar to those described in Example 17 for the BKB1 receptor with some modifications. Bradykinin Radioligand Binding Assay (BKB2) was conducted using a standard assay under the following conditions: • 1. Composition of Assay Buffer: 24 mM TES, pH 6.8, 1 mM 1.10-Phenanthrioline, 0.3% BSA. • 2. Source of BKb2R: CHO-K1 cells expressing recombinant human BKb2R • 3. Ligand: [^3H]-Bradykinin 0.2 nM. • 4. Incubation time: 90 min RT. • 5. Reading: TopCount.
Commercial curcumin (Sigma, C1386) was tested at concentrations ranging from 200 μM to 5 nM. […] Ki was manually calculated by using Cheng-Prusoff equation.

CD-1 mice [1] = test: Nociceptive behavior model elicited by intraplantar injection of formalin; assay type: in vivo
Procedure: Mice (n=6 per group) were habituated under inverted Plexiglas observation chamber for 30 minutes to allow them to acclimatize to their surroundings. […] Mice were immediately transferred to their individual observational chamber. […] Mirrors positioned behind the chambers enabled observation of the right hind paw when it was obscured from direct view. […] These behavioral reactions observed for the first five minutes are due to direct action of the irritant on sensory nerve endings where is believed to be as a result of inflammation in the later phase. […] Mice were treated with curcumin (50, 100, 150 or 200 mg/kg) or ibuprofen (200 mg/kg) orally half an hour before intraplantar formalin injection.

Lewis rats = test: Carrageenan-induced rat paw edema model (paw edema and pain sensitivity); assay type: in vivo; conditions: for Pain sensitivity, percent change of vehicle / Paw edema, percent change of vehicle: 166 mg/kg oral 1 hr after carrageenan, female Lewis rats
Procedure: Local inflammation was induced by intraplantar injection of carrageenan λ (Sigma, St. Louis, Mo.; 100 μl of 1% [w/v] in saline) into the plantar surface of right hind paw of sedated rat (with 2.5% isoflurane) at time 0 (T=0) (Gamache et al., J Neurosurg. 65:679, 1986; Guay et al., J. Biol. Chem. 279:24866, 2004; Chou et al., Anesth. Analg. 97:1724, 2003). Rats were acclimated in a procedure room for 20-30 minutes before each measurement was taken. Allodynia was evaluated by measuring responsiveness to the tip of a Randell-Selitto paw pressure test applied perpendicular to the central plantar surface of the right hind paw. A positive response to the applied pressure, noted by sharp withdrawal of the paw, was recorded automatically by an electronic Von Frey Anesthesiometer (2390 series Electrovonfrey, IITC, Woodland Hills, Calif.) (Vivancos et al., Braz. J. Med. Biol. Res. 37:391, 2004). Mechanical allodynia was evaluated before carrageenan inoculation, and thereafter at 1 hr, 2 hr, 4 hr and 6 hr. Paw edema volume was measured with the use of Plethysmometer (IITC, Woodland Hills, Calif.; Model 520) at time 0 (before carrageenan), and then 1 hr, 2 hr, 4 hr, and 6 hr after carrageenan injection. Animals (N=5 per group) were orally gavaged with a positive control ibuprofen (Spectrum Chemical MFG, Gardena, Calif.) (100 or 200 mg/kg); test articles such as: extracts, and combinations of extracts at various doses from 100, 200, 300 to 400 mg/kg and vehicle control (propylene glycol) were given 1 hour after carrageenan inoculation unless specified otherwise.

[2] = tested on: Rabbit cartilage explants; test: Ex vivo glycosaminoglycans (GAG) release assay; assay type: cell-based
Procedure: Articular cartilage from hock joints of rabbits (2.5 kg body weight) was removed immediately after each animal was sacrificed and articular cartilage explants were obtained by following the method described by Sandy et al. (Biochem. Biophy Acta 543:36, 1978). Briefly, after the articular surfaces were surgically exposed under sterile conditions, approximately 200-220 mg articular surfaces per joint were dissected and submerged into complete medium (DMEM, supplemented with heat inactivated 5% FBS; penicillin 100 U/ml; streptomycin 100 ug/ml). They were then rinsed several times with the complete medium and incubated for 1 to 2 days at 37° C. in a humidified 5% CO2/95% air incubator for stabilization. The complete medium was replaced with a basal medium (DMEM, supplemented with heat-inactivated 1% FBS, 10 mM HEPES, and penicillin 100 U/ml streptomycin 100 μg/ml). Approximately 30 mg cartilage pieces (2×3×0.35 mm/piece) were placed in 24-well plates and treated with given concentrations of test agents. After pretreatment for 1 h, 5 ng/ml of rhIL-1α was added to the culture medium and further incubated at 37° C. in a humidified 5% CO2/95% air incubator. The culture medium was collected 24 h later and stored at −20° C. until assay.
The amount of sulphated GAGs (e.g., released from proteoglycans) in the medium at the end of the reaction reflects the amount of articular cartilage degradation, which was determined using the commercially available 1,9-dimethy-methylene blue method according to the instructions of the manufacturer (Blyscan™ assay, Accurate Chemical and Scientific Corp., Westbury, N.Y.).

CD-1 mice [3] = test: Visceral pain perception model (Writhing's test, acetic acid); assay type: in vivo
Procedure: Mice (n=6 per group) were habituated under an inverted Plexiglas observation chamber for 30 minutes to allow them to acclimatize to their surroundings. Animals were orally administered treatment articles at different doses, […], or vehicle control (propylene glycol) 30 minutes before intraperitoneal administration of freshly made acetic acid solution (0.7% in 0.9% NaCl) at 10 ml/kg using a 26 gauge needle. The experiment was carried out at room temperature. After the challenge, each animal was placed back into its own individual section of the observation chamber and the number of constrictions of the abdominal muscle together with stretching was counted cumulatively over a period of 30 minutes (Collier et al., Br. J. Pharmacol. Chemother. 32:295, 1968).

Structure (SMILES): COc1cc(/C=C/C(=O)CC(=O)/C=C/c2ccc(O)c(OC)c2)ccc1O [Curcumin]
- selectivity BKB1 vs BKB2 binding (BKB1 receptor): selective BKB1 antagonist
- Ki (BKB1 receptor; Cheng-Prusoff, read-out: BKB1 Ki (μg/ml) (converted)): 5.9 µM
- Ki (recombinant human BKb2R): 157 µM
- Pain Sensitivity 20-40 Minutes after Formalin Injection % ↓ vs. Vehicle (CD-1 mice [1]; 50 mg/kg oral): 53.1%
- Pain Sensitivity 20-40 Minutes after Formalin Injection % ↓ vs. Vehicle (CD-1 mice [1]; 100 mg/kg oral): 52.5%
- Pain Sensitivity 20-40 Minutes after Formalin Injection % ↓ vs. Vehicle (CD-1 mice [1]; 150 mg/kg oral): 60.3%
- Pain Sensitivity 20-40 Minutes after Formalin Injection % ↓ vs. Vehicle (CD-1 mice [1]; 200 mg/kg oral): 74.6%

Structure (SMILES): CC(=O)N[C@H]1C(O)O[C@H](CO)[C@@H](O)[C@@H]1O (stereo partly shown) [NAG, N-Acetyl Glucosamine]
- Pain sensitivity, percent change of vehicle (Lewis rats; 1 hr): 8.8%
- Paw edema, percent change of vehicle (Lewis rats; 1 hr): 8.2%
- Pain sensitivity, percent change of vehicle (Lewis rats; 3 hr): 3.6%
- Paw edema, percent change of vehicle (Lewis rats; 3 hr): 15.8%
- Pain sensitivity, percent change of vehicle (Lewis rats; 5 hr): 2.6%
- Paw edema, percent change of vehicle (Lewis rats; 5 hr): 6.2%
- analgesic and anti-inflammatory activity (Lewis rats; oral, rosmarinic acid 200 mg/kg, eriocitrin 100 mg/kg, NAG 166 mg/kg): minimal to no activity in inhibiting pain or inflammation
- activity at 25 µg/mL ([2]; Oryctolagus cuniculus, 24 h, 25 μg/ml, rhIL-1α 5 ng/ml (IL-1α alone = 100)): 95.7%
- activity at 50 µg/mL ([2]; Oryctolagus cuniculus, 24 h, 50 μg/ml, rhIL-1α 5 ng/ml (IL-1α alone = 100)): 99.2%
- activity at 100 µg/mL ([2]; Oryctolagus cuniculus, 24 h, 100 μg/ml, rhIL-1α 5 ng/ml (IL-1α alone = 100)): 87.5%
- activity at 150 µg/mL ([2]; Oryctolagus cuniculus, 24 h, 150 μg/ml, rhIL-1α 5 ng/ml (IL-1α alone = 100)): 81.2%
- protective effect on rhIL-1α-mediated PG degradation / GAG release ([2]; rhIL-1α 5 ng/ml): marginal
- number of abdominal constrictions / behavioral responses in 30 minutes, Mean ± SD (CD-1 mice [3]; 300 mg/kg oral): 91.0 ± 18.7
- Visceral pain sensitivity, behavioral responses, Mean ± SD (CD-1 mice [3]; 300 mg/kg oral 30 min before acetic acid i.p., observed 30 minutes, CD-1 mice): 91.0 ± 18.7
- Visceral pain sensitivity, % inhibition vs vehicle (CD-1 mice [3]; 300 mg/kg oral, vs vehicle, CD-1 mice): 5.4%
